Laboratory results from patent US20250136722A1, “CYTOTOXICITY TARGETING CHIMERAS” (GLAXOSMITHKLINE INTELLECTUAL PROPERTY DEVELOPMENT LIMITED, priority 2021, published 2025).
Where “and” joins values, the source holds several entries; their conditions need not be identical. Identical values can stand only once.

Assays:
[1] = target: Anti-cotinine antibody (SEQ ID NO: 11 / SEQ ID NO: 12, rabbit variable region with human IgG1 Fc domain); assay: Binding of anti-cotinine antibody to ARM compounds by SPR, Biacore T200, 37° C. (Example 202); conditions: pH 7.4, rabbit variable region/human IgG1 Fc antibody captured on protein A
Protocol: Anti-cotinine antibodies having a heavy chain sequence of SEQ ID NO: 11 and a light chain sequence of SEQ ID NO: 12 (rabbit variable region with human IgG1 Fc domain containing a DE mutation (S239D/1332E)) were captured on one or more flow cells of a protein A sensor chip (Cytiva) using a Biacore T200 while reserving flow cell 1 as a reference. Following capture, a 3000 second wait step was included to reduce drift during compound analysis. ARM compounds of Formula (I) were then injected at 100 μL/min with 200 and 2000 second association and dissociation times. The entire experiment was run at 37° C. with running buffer containing 10 mM HEPES pH 7.4, 150 mM NaCl, 0.005% P20 and 1% DMSO. ARM compounds of Formula (I) were titrated with a top concentration of 200 nM using a 3-fold 5-point dilution series and a corresponding 5-injection buffer cycle was run for blank subtraction. Data were double referenced by subtracting the response of the reference flow cell from that of the antibody-containing flow cell and subsequently subtracting the referenced blank sensorgrams. Following compound analysis, the surface was regenerated using a 30 second injection of pH 1.5 glycine at a flow rate of 30 μL/min after which antibody was re-captured. The experiment was run using Biacore T200 control software and evaluated using Biacore T200 Evaluation software. Curves were fit with a 1:1 kinetic binding model to obtain kon(1/Ms), koff(1/s), Kd (M) determined as koff/kon, and residence time determined as 1/koff. (s).
Anti-cotinine antibody was tested for binding to ARMs compounds of Formula (I) of the invention in the above assay in or more experimental runs and the results are shown in Table 5 below. Affinity is reported as a pKd value. The pKd value is the negative log of the Kd value, wherein the Kd value is the dissociation constant measured in molar (M) as noted above. For compounds tested in more than one experimental run, the pKd value is reported as an average.

[2] = target: T1, CHOK1 cells engineered to overexpress human CCR2 (Homo sapiens, UniProt P41597); assay: Antibody dependent cellular cytotoxicity (ADCC) reporter assay (Example 199); assay type: cell-based; conditions: with anti-cotinine antibody SEQ ID NO: 11/12; CHOK1-human CCR2 target cells, Jurkat FcγRIIIa NFAT-luciferase reporter cells; 12-18 hours; read-out: ADCC Reporter Assay pEC50 (converted)
T1 construct: expressed in transfected cells; host or cells: CHOK1 cells
Method in brief: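 Potency is reported as pEC50 from a nonlinear fit, averaged over runs, using luciferase signal divided by that of compound-free wells. The readout comes from NFAT-luciferase Jurkat cells expressing FcγRIIIa, mixed for 12–18 h with human CCR2-overexpressing CHOK1 cells, 1 pM–10 μM ARM compound and 0.01–200 μg/mL Fc-enhanced anti-cotinine IgG1.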

pKd of Antibody for ARM Compound of Formula (I) [1] | Structure (SMILES) | EC50 [2]
9.4775 | CN1C(=O)C[C@H](C(=O)NCCO[C@H]2CC[C@@H](OCCCC(=O)N[C@H]3CC[C@H](C(=O)N[C@@H]4C[C@H](NC(C)(C)C)CC[C@@H]4N4CC[C@H](Nc5ncnc6ccc(C(F)(F)F)cc56)C4=O)CC3)CC2)[C@H]1c1cccnc1 [Example 2] | 5.06 nM
9.2795 | CC(C)N(C)[C@@H]1CC[C@H](N2CC[C@H](Nc3ncnc4ccc(C(F)(F)F)cc34)C2=O)[C@H](NC(=O)[C@H]2CC[C@@H](NC(=O)CCCO[C@H]3CC[C@@H](OCCNC(=O)[C@H]4CC(=O)N(C)[C@@H]4c4cccnc4)CC3)CC2)C1 [Example 3] | 0.155 nM and 0.283 nM
9.526 | CC(C)N(C)[C@@H]1CC[C@H](N2CC[C@H](Nc3ncnc4ccc(C(F)(F)F)cc34)C2=O)[C@H](NC(=O)[C@H]2CC[C@H](NC(=O)CCCO[C@H]3CC[C@@H](OCCNC(=O)[C@H]4CC(=O)N(C)[C@@H]4c4cccnc4)CC3)CC2)C1 [Example 4] | 6.3 nM and 2.79 nM and 4.89 nM
9.282 | CC(C)N(C)[C@@H]1CC[C@H](N2CC[C@H](Nc3ncnc4ccc(C(F)(F)F)cc34)C2=O)[C@H](NC(=O)CCOCCNC(=O)CCCO[C@H]2CC[C@@H](OCCNC(=O)[C@H]3CC(=O)N(C)[C@@H]3c3cccnc3)CC2)C1 [Example 6] | 0.378 nM
10.511 | CC(C)N(C)[C@@H]1CC[C@H](N2CC[C@H](Nc3ncnc4ccc(C(F)(F)F)cc34)C2=O)[C@H](NC(=O)[C@H]2CC[C@H](NC(=O)CCCO[C@H]3CC[C@H](OCCNC(=O)[C@H]4CC(=O)N(C5CC5)[C@@H]4c4cccnc4)CC3)CC2)C1 [Example 13] | 
8.8705 | CC(C)N(C)[C@@H]1CC[C@H](N2CC[C@H](Nc3ncnc4ccc(C(F)(F)F)cc34)C2=O)[C@H](NC(=O)[C@H]2CC[C@H](CNC(=O)CCCC(=O)NCCCOCCCNC(=O)[C@H]3CC(=O)N(C)[C@@H]3c3cccnc3)CC2)C1 [Example 20] | 0.0832 nM
9.3345 | CC(C)N(C)[C@@H]1CC[C@H](N2CC[C@H](Nc3ncnc4ccc(C(F)(F)F)cc34)C2=O)[C@H](NC(=O)C2CCN(C(=O)CCOCCOCCOCCNC(=O)[C@H]3CC(=O)N(C)[C@@H]3c3cccnc3)CC2)C1 [Example 29] | 12.6 nM
9.3015 | CN1C(=O)C[C@H](C(=O)NCCOCCOCCOCCC(=O)N[C@H]2CC[C@H](C(=O)N[C@@H]3C[C@H](NC(C)(C)C)CC[C@@H]3N3CC[C@H](Nc4ncnc5ccc(C(F)(F)F)cc45)C3=O)CC2)[C@H]1c1cccnc1 [Example 31] | 7.94 nM
9.1825 | CC(C)N(C)[C@@H]1CC[C@H](N2CC[C@H](Nc3ncnc4ccc(C(F)(F)F)cc34)C2=O)[C@H](NC(=O)[C@H]2CC[C@H](CNC(=O)CCOCCOCCOCCNC(=O)[C@H]3CC(=O)N(C)[C@@H]3c3cccnc3)CC2)C1 [Example 32] | 1.07 nM and 0.593 nM
9.23 | CC(C)N(C)[C@@H]1CCC(N2CC[C@H](Nc3ncnc4ccc(C(F)(F)F)cc34)C2=O)[C@H](NC(=O)CCOCCOCCOCCOCCOCCOCCOCCOCCNC(=O)[C@H]2CC(=O)N(C)[C@@H]2c2cccnc2)C1 (some centres unmarked) [Example 42] | 0.398 nM
9.074 | CC(C)N(C)[C@@H]1CC[C@H](N2CC[C@H](Nc3ncnc4ccc(C(F)(F)F)cc34)C2=O)[C@H](NC(=O)CCOCCNC(=O)CCOCCNC(=O)CCOCCNC(=O)[C@H]2CC(=O)N(C)[C@@H]2c2cccnc2)C1 [Example 46] | 0.501 nM
9.051 | CC(C)N(C)[C@@H]1CC[C@H](N2CC[C@H](Nc3ncnc4ccc(C(F)(F)F)cc34)C2=O)[C@H](NC(=O)COCCNC(=O)CCOCCNC(=O)CCOCCNC(=O)[C@H]2CC(=O)N(C)[C@@H]2c2cccnc2)C1 [Example 47] | 2.84 nM
9.1485 | CC(C)N(C)[C@@H]1CC[C@H](N2CC[C@H](Nc3ncnc4ccc(C(F)(F)F)cc34)C2=O)[C@H](NC(=O)COCCNC(=O)CCOCCOCCNC(=O)CCNC(=O)[C@H]2CC(=O)N(C)[C@@H]2c2cccnc2)C1 [Example 50] | 1.41 nM
9.5515 | CC(C)N(C)[C@@H]1CC[C@H](N2CC[C@H](Nc3ncnc4ccc(C(F)(F)F)cc34)C2=O)[C@H](NC(=O)[C@H]2C[C@H](NC(=O)CCOC[C@H]3CC[C@H](COCCNC(=O)[C@H]4CC(=O)N(C)[C@@H]4c4cccnc4)CC3)C2)C1 [Example 54] | 1 nM
9.4085 | CC(C)N(C)[C@@H]1CC[C@H](N2CC[C@H](Nc3ncnc4ccc(C(F)(F)F)cc34)C2=O)[C@H](NC(=O)[C@H]2C[C@@H](NC(=O)CCOC[C@H]3CC[C@H](COCCNC(=O)[C@H]4CC(=O)N(C)[C@@H]4c4cccnc4)CC3)C2)C1 [Example 55] | 0.377 nM
9.3185 | CC(C)N(C)[C@@H]1CC[C@H](N2CC[C@H](Nc3ncnc4ccc(C(F)(F)F)cc34)C2=O)[C@H](NC(=O)[C@H]2CC[C@@H](NC(=O)CCCC(=O)NCCCC(=O)NCCCNC(=O)[C@H]3CC(=O)N(C)[C@@H]3c3cccnc3)CC2)C1 [Example 56, N-((1S,4s)-4-(((1R,2S,5R)-5-(Isopropyl(methyl)amino)-2-((S)-2-oxo-3-((6-(trifluoromethyl)quinazolin-4-yl)amino)pyrrolidin-1-yl)cyclohexyl)carbamoyl)cyclohexyl)-N^5-(4-((3-((2S,3S)-1-methyl-5-oxo-2-(pyridin-3-yl)pyrrolidine-3-carboxamido)propyl)amino)-4-oxobutyl)glutaramide] | 0.655 nM and 0.128 nM
9.558 | CC(C)N(C)[C@@H]1CC[C@H](N2CC[C@H](Nc3ncnc4ccc(C(F)(F)F)cc34)C2=O)[C@H](NC(=O)[C@H]2CC[C@@H](NC(=O)CCCOC[C@H]3CC[C@@H](COCCNC(=O)[C@H]4CC(=O)N(C)[C@@H]4c4cccnc4)CC3)CC2)C1 [Example 61] | 
8.648 | CN1C(=O)C[C@H](C(=O)NCC(=O)NCCOCCOCCC(=O)N[C@H]2CC[C@@H](C(=O)N[C@@H]3C[C@H](NC(C)(C)C)CC[C@@H]3N3CC[C@H](Nc4ncnc5ccc(C(F)(F)F)cc45)C3=O)CC2)[C@H]1c1cccnc1 [Example 65] | 1.4 nM and 0.498 nM
8.649 | CC(C)N(C)[C@@H]1CC[C@H](N2CC[C@H](Nc3ncnc4ccc(C(F)(F)F)cc34)C2=O)[C@H](NC(=O)[C@H]2C[C@@H](NC(=O)CCOCCOCCNC(=O)CNC(=O)[C@H]3CC(=O)N(C)[C@@H]3c3cccnc3)C2)C1 [Example 66] | 0.431 nM
9.091 | CC(C)N(C)[C@@H]1CC[C@H](N2CC[C@H](Nc3ncnc4ccc(C(F)(F)F)cc34)C2=O)[C@H](NC(=O)COCCOCCNC(=O)COCCNC(=O)CCNC(=O)[C@H]2CC(=O)N(C)[C@@H]2c2cccnc2)C1 [Example 74, (2S,3S)-N-(1-(((1R,2S,5R)-5-(isopropyl(methyl)amino)-2-((S)-2-oxo-3-((6-(trifluoromethyl)quinazolin-4-yl)amino)pyrrolidin-1-yl)cyclohexyl)amino)-1,10,16-trioxo-3,6,12-trioxa-9,15-diazaoctadecan-18-yl)-1-methyl-5-oxo-2-(pyridin-3-yl)pyrrolidine-3-carboxamide] | 9.64 nM
9.103 | CC(C)N(C)[C@@H]1CC[C@H](N2CC[C@H](Nc3ncnc4ccc(C(F)(F)F)cc34)C2=O)[C@H](NC(=O)CCOCCOCCNC(=O)COCCNC(=O)CCNC(=O)[C@H]2CC(=O)N(C)[C@@H]2c2cccnc2)C1 [Example 75] | 1.63 nM
9.126 | CC(C)N(C)[C@@H]1CC[C@H](N2CC[C@H](Nc3ncnc4ccc(C(F)(F)F)cc34)C2=O)[C@H](NC(=O)COCCNC(=O)CCNC(=O)COCCOCCNC(=O)[C@H]2CC(=O)N(C)[C@@H]2c2cccnc2)C1 [Example 79] | 5.2 nM
9.109 | CC(C)N(C)[C@@H]1CC[C@H](N2CC[C@H](Nc3ncnc4ccc(C(F)(F)F)cc34)C2=O)[C@H](NC(=O)COCCNC(=O)CNC(=O)CCOCCOCCNC(=O)[C@H]2CC(=O)N(C)[C@@H]2c2cccnc2)C1 [Example 80] | 1.58 nM
